Test results as given in paper PMC10054477, “Design, Synthesis, and Biological Evaluation of Sulfonamide Methoxypyridine Derivatives as Novel PI3K/mTOR Dual Inhibitors” (Pharmaceuticals, 2023).

Columns and labels:
[1] = biological target: T1, PI3Kα (Homo sapiens, UniProt P42336); assay: ADP-Glo kinase assay, PI3Kα enzyme inhibition; type: biochemical; conditions: for inhibition at 0.001 µM: at 1 nM
T1 construct: purchased SignalChem P27-122DH
Method: The enzymatic inhibitory assays of all target compounds against PI3Kα were performed with the ADP-Glo assay (Promega, Madison, WI, USA, catalog No. V9102/3). Briefly, compounds were continuously diluted to a certain concentration. […] The mixture was added to a 96-well plate and incubated in a dark place at ambient temperature for 40 min. Then, the kinase reaction was stopped by adding of ADP-Glo reagent and the plate was incubated again at ambient temperature for another 40 min. The kinase detection reagent was added and the signal was collected via PerkinElmer Envision plate reader (PE, Boston, MA, USA).

[2] = tested on: MCF-7 cells; assay: CCK-8 cell viability assay, MCF-7; type: cell-based; conditions: Homo sapiens, MCF7, 72 h, mean (n = 3)
Method: (§1) MCF-7 and HCT-116 cells were purchased from the Meilunbio Biotechnology Co., Ltd. (Dalian, China). Cells were cultured at 37 °C with 5% CO2, using DMEM or RPMI 1640 medium (Meilunbio, Dalian, China) with 10% (v/v) fetal bovine serum (Gibco, San Diego, CA, USA) and 1% (v/v) penicillin and streptomycin (Meilunbio, Dalian, China). CCK-8 assay was used to determine the inhibitory effect in vitro. In short, cells were incubated into 96-well plates at the rate of 5000 cells per well. After 24 h of incubation, 100 μL medium was added, which contained a specific concentration of the test compound. After 72 h, 10 μL CCK-8 regent was added and the plate was incubated at 37 °C, 5% CO2 for 1 h. The optical density of each hole at 450 nm was read by a BioTek TS-800 microplate reader. GraphPad Prism 9.3.1 software was used to calculate the IC50 value.

[3] = tested on: HCT-116 cells; assay: CCK-8 cell viability assay, HCT-116; type: cell-based; conditions: Homo sapiens, mean (n = 3)
Method: as §1

T1 sequence (P42336 whole entry): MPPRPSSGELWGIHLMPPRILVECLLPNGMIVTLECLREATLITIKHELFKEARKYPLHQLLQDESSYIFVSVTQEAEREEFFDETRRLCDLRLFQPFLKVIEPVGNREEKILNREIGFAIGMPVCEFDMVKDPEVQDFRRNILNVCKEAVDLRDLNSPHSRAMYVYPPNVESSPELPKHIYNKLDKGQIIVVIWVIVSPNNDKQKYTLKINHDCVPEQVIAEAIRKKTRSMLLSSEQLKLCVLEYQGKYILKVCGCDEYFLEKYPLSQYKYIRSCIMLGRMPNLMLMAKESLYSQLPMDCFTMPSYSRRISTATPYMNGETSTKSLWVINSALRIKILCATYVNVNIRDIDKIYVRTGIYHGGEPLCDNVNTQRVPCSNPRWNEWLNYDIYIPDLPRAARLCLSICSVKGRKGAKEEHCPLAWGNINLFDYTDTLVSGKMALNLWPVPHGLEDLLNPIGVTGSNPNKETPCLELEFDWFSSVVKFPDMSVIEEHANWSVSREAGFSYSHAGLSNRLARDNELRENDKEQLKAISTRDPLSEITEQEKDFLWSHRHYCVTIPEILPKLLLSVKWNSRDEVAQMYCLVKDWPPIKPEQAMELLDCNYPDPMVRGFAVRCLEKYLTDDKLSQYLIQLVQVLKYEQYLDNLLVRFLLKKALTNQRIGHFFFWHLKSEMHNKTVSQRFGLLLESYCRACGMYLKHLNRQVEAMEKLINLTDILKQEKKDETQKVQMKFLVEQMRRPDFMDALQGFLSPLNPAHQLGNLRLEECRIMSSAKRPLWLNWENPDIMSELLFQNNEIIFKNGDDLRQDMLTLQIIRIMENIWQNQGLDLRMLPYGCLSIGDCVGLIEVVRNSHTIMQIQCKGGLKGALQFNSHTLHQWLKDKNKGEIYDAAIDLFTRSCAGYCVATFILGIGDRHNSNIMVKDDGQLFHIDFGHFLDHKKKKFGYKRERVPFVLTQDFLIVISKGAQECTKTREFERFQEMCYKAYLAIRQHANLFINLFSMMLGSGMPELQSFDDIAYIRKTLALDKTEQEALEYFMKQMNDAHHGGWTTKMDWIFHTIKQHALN
T1 sequence (P27986 whole entry partner): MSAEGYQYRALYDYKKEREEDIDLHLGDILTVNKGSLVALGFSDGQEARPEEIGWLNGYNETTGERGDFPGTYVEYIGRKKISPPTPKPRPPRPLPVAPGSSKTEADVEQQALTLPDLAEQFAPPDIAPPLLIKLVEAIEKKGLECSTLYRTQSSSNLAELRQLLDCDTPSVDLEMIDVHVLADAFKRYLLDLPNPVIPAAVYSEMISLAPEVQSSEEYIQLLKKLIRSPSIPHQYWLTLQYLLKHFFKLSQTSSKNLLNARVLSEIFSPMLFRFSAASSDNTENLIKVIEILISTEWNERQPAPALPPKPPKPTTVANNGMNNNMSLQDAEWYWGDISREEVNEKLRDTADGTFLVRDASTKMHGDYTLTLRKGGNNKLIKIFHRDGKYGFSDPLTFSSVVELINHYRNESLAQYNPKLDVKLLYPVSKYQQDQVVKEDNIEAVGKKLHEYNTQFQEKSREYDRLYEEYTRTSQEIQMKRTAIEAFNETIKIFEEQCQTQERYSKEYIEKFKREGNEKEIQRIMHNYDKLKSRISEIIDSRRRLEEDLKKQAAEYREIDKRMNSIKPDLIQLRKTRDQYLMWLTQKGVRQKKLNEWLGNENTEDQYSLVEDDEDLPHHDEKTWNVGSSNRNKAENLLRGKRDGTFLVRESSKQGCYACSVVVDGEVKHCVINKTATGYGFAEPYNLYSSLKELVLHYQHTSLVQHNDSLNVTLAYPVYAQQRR

Row | Structure (SMILES) | inhibition at 0.001 µM ([1]; Table 2) | IC50 ([2]; Table 2) | IC50 ([3]; Table 2, 72 h) | inhibition at 0.001 µM ([1]; Table 1) | IC50 ([2]; Table 1) | IC50 ([3]; Table 1, 72 h) | further results
1 | COCCNC(=O)c1cnc(-c2ccnc3ccc(-c4cnc(OC)c(NS(=O)(=O)c5ccc(F)cc5F)c4)cc23)o1 [22e, 2-(6-(5-((2,4-difluorophenyl)sulfonamido)-6-methoxypyridin-3-yl)quinolin-4-yl)-N-(2-methoxyethyl)oxazole-5-carboxamide] |  |  |  |  |  |  | inhibition at 0.001 µM ([1]; Table 3): 69%; IC50 ([2]; Table 3): 0.2 ± 0.09 µM; IC50 ([3]; Table 3, 72 h): 0.13 ± 0.05 µM
2 | COc1ncc(-c2cnc3ncnc(N4CCOCC4)c3c2)cc1NS(=O)(=O)c1ccc(F)cc1F [17e, N-(2-methoxy-5-(4-morpholinopyrido[2,3-d]pyrimidin-6-yl)pyridin-3-yl)2,4-difluorobenzenesulfonamide] | 36% | 0.92 ± 0.41 µM | 0.64 ± 0.2 µM |  |  |  | 
3 | COCCCNc1ncnc2c1sc1cc(-c3cnc(OC)c(NS(=O)(=O)c4ccc(F)cc4F)c3)ccc12 [11e, N-(2-methoxy-5-(4-((3-methoxypropyl)amino)benzo[4,5]thieno[3,2-d]pyrimidin-7-yl)pyridin-3-yl)-2,4-difluorobenzenesulfonamide] |  |  |  | 35% | > 1 µM | > 1 µM | 
4 | COc1ccc(CCNC(=O)c2cnc(-c3ccnc4ccc(-c5cnc(OC)c(NS(=O)(=O)c6ccc(F)cc6F)c5)cc34)o2)cc1 [22k, 2-(6-(5-((2,4-difluorophenyl)sulfonamido)-6-methoxypyridin-3-yl)quinolin-4-yl)-N-(4-methoxyphenethyl)oxazole-5-carboxamide] |  |  |  |  |  |  | inhibition at 0.001 µM ([1]; Table 3): 22%; IC50 ([2]; Table 3): > 1 µM; IC50 ([3]; Table 3, 72 h): > 1 µM
5 | COc1ncc(-c2cnc3ncnc(NC(C)C)c3c2)cc1NS(=O)(=O)c1ccc(F)cc1F [17a, 2,4-difluoro-N-(5-(4-(isopropylamino)pyrido[2,3-d]pyrimidin-6-yl)-2-methoxypyridin-3-yl)benzenesulfonamide] | 39% | 0.85 ± 0.3 µM | 0.59 ± 0.15 µM |  |  |  | 
6 | COc1ncc(-c2cnc3ncnc(N4CCC(C)CC4)c3c2)cc1NS(=O)(=O)c1ccc(F)cc1F [17f, N-(2-methoxy-5-(4-(4-methylpiperidin-1-yl)pyrido[2,3-d]pyrimidin-6-yl)pyridin-3-yl)-2,4-difluorobenzenesulfonamide] | 11% | 0.86 ± 0.3 µM | 0.51 ± 0.25 µM |  |  |  | 
7 | COc1ncc(-c2cnc3ncnc(NCCO)c3c2)cc1NS(=O)(=O)c1ccc(F)cc1F [17h, N-(5-(4-((2-hydroxyethyl)amino)pyrido[2,3-d]pyrimidin-6-yl)-2-methoxypyridin-3-yl)-2,4-difluorobenzenesulfonamide] | 24% | 0.93 ± 0.48 µM | 0.69 ± 0.12 µM |  |  |  | 
8 | COc1ncc(-c2cnc3ncnc(NCC4CCCCC4)c3c2)cc1NS(=O)(=O)c1ccc(F)cc1F [17k, N-(5-(4-((cyclohexylmethyl)amino)pyrido[2,3-d]pyrimidin-6-yl)-2-methoxypyridin-3-yl)-2,4-difluorobenzenesulfonamide] | 22% | > 1 µM | > 1 µM |  |  |  | 
9 | CCCCNC(=O)c1cnc(-c2ccnc3ccc(-c4cnc(OC)c(NS(=O)(=O)c5ccc(F)cc5F)c4)cc23)o1 [22g, N-butyl-2-(6-(5-((2,4-difluorophenyl)sulfonamido)-6-methoxypyridin-3-yl)quinolin-4-yl)oxazole-5-carboxamide] |  |  |  |  |  |  | inhibition at 0.001 µM ([1]; Table 3): 55%; IC50 ([2]; Table 3): 0.45 ± 0.09 µM; IC50 ([3]; Table 3, 72 h): 0.32 ± 0.09 µM
10 | COc1ncc(-c2ccc3c(c2)sc2c(NCCO)ncnc23)cc1NS(=O)(=O)c1ccc(F)cc1F [11c, N-(5-(4-((2-hydroxyethyl)amino)benzo[4,5]thieno[3,2-d]pyrimidin-7-yl)-2-methoxypyridin-3-yl) -2,4-difluoro-benzenesulfonamide] |  |  |  | 29% | 0.85 ± 0.37 µM | 0.59 ± 0.18 µM | 
11 | COc1ncc(-c2ccc3nccc(-c4ncc(C(=O)NC5CCCCC5)o4)c3c2)cc1NS(=O)(=O)c1ccc(F)cc1F [22j, N-cyclohexyl-2-(6-(5-((2,4-difluorophenyl)sulfonamido)-6-methoxypyridin-3-yl)quinolin-4-yl)oxazole-5-carboxamide] |  |  |  |  |  |  | inhibition at 0.001 µM ([1]; Table 3): 18%; IC50 ([2]; Table 3): > 1 µM; IC50 ([3]; Table 3, 72 h): > 1 µM
12 | COc1ncc(-c2cnc3ncnc(NCC4CC4)c3c2)cc1NS(=O)(=O)c1ccc(F)cc1F [17l, N-(5-(4-((cyclopropylmethyl)amino)pyrido[2,3-d]pyrimidin-6-yl)-2-methoxypyridin-3-yl)-2,4-difluorobenzenesulfonamide] | 25% | 0.63 ± 0.12 µM | 0.47 ± 0.17 µM |  |  |  | 
13 | COc1ncc(-c2ccc3c(c2)sc2c(N4CCC(C)CC4)ncnc23)cc1NS(=O)(=O)c1ccc(F)cc1F [11b, N-(2-methoxy-5-(4-(4-methylpiperidin-1-yl)benzo[4,5]thieno[3,2-d]pyrimidin-7-yl)pyridin-3-yl) 2,4-difluorobenzenesulfonamide] |  |  |  | 10% | > 1 µM | > 1 µM | 
14 | COc1ncc(-c2ccc3nccc(-c4ncc(C(=O)NCC5CCCCC5)o4)c3c2)cc1NS(=O)(=O)c1ccc(F)cc1F [22i, N-(cyclohexylmethyl)-2-(6-(5-((2,4-difluorophenyl)sulfonamido)-6-methoxypyridin-3-yl)quinolin-4-yl)oxazole-5-carboxamide] |  |  |  |  |  |  | inhibition at 0.001 µM ([1]; Table 3): 33%; IC50 ([2]; Table 3): 1 ± 0.3 µM; IC50 ([3]; Table 3, 72 h): 0.77 ± 0.19 µM
15 | COc1ncc(-c2ccc3c(c2)sc2c(NC(C)C)ncnc23)cc1NS(=O)(=O)c1ccc(F)cc1F [11g, N-(5-(4-(isopropylamino)benzo[4,5]thieno[3,2-d]pyrimidin-7-yl)-2-methoxypyridin-3-yl)-2,4-difluorobenzenesulfonamide] |  |  |  | 44% | 0.53 ± 0.16 µM | 0.22 ± 0.08 µM | 
16 | COc1ncc(-c2ccc3nccc(-c4ncc(C(=O)NC5CC5)o4)c3c2)cc1NS(=O)(=O)c1ccc(F)cc1F [22d, N-cyclopropyl-2-(6-(5-((2,4-difluorophenyl)sulfonamido)-6-methoxypyridin-3-yl)quinolin-4-yl)oxazole-5-carboxamide] |  |  |  |  |  |  | inhibition at 0.001 µM ([1]; Table 3): 82%; IC50 ([1]; mean (n = 2)): 0.22 nM; IC50 ([2]; Table 3): 0.46 ± 0.11 µM; IC50 ([3]; Table 3, 72 h): 0.1 ± 0.06 µM
17 | COc1ncc(-c2ccc3c(c2)sc2c(NC4CC4)ncnc23)cc1NS(=O)(=O)c1ccc(F)cc1F [11d, N-(5-(4-(cyclopropylamino)benzo[4,5]thieno[3,2-d]pyrimidin-7-yl)-2-methoxypyridin-3-yl)-2,4-difluorobenzenesulfonamide] |  |  |  | 40% | 0.51 ± 0.11 µM | 0.19 ± 0.12 µM | 
18 | COc1ncc(-c2ccc3c(c2)sc2c(NCCN)ncnc23)cc1NS(=O)(=O)c1ccc(F)cc1F [11f, N-(5-(4-((2-aminoethyl)amino)benzo[4,5]thieno[3,2-d]pyrimidin-7-yl)-2-methoxypyridin-3-yl)-2,4-difluorobenzenesulfonamide] |  |  |  | 10% | 0.69 ± 0.25 µM | 0.77 ± 0.21 µM | 
19 | COCCNc1ncnc2ncc(-c3cnc(OC)c(NS(=O)(=O)c4ccc(F)cc4F)c3)cc12 [17j, N-(2-methoxy-5-(4-((2-methoxyethyl)amino)pyrido[2,3-d]pyrimidin-6-yl)pyridin-3-yl)-2,4-difluorobenzenesulfonamide] | 24% | 0.75 ± 0.25 µM | 0.42 ± 0.12 µM |  |  |  | 
20 | COc1ncc(-c2cnc3ncnc(NCCN4CCOCC4)c3c2)cc1NS(=O)(=O)c1ccc(F)cc1F [17g, N-(2-methoxy-5-(4-((2-morpholinoethyl)amino)pyrido[2,3-d]pyrimidin-6-yl)pyridin-3-yl) -2,4-difluorobenzenesulfonamide] | 11% | > 1 µM | > 1 µM |  |  |  | 
21 | COc1ncc(-c2ccc3c(c2)sc2c(NCCN(C)C)ncnc23)cc1NS(=O)(=O)c1ccc(F)cc1F [11h, N-(5-(4-((2-(dimethylamino)ethyl)amino)benzo[4,5]thieno[3,2-d]pyrimidin-7-yl)-2-methoxypyridin-3-yl)-2,4-difluorobenzenesulfonamide] |  |  |  | 12% | 0.7 ± 0.21 µM | 0.56 ± 0.1 µM | 
22 | COCCOc1ncnc2c1sc1cc(-c3cnc(OC)c(NS(=O)(=O)c4ccc(F)cc4F)c3)ccc12 [11l, N-(2-methoxy-5-(4-(2-methoxyethoxy)benzo[4,5]thieno[3,2-d]pyrimidin-7-yl)pyridin-3-yl)-2,4-difluorobenzenesulfonamide] |  |  |  | 18% | 0.86 ± 0.12 µM | > 1 µM | 
23 | CCOC(=O)c1cnc(-c2ccnc3ccc(-c4cnc(OC)c(NS(=O)(=O)c5ccc(F)cc5F)c4)cc23)o1 [22a, Ethyl-2-(6-(5-((2,4-difluorophenyl)sulfonamido)-6-methoxypyridin-3-yl)quinolin-4-yl)oxazole-5-carboxylate] |  |  |  |  |  |  | inhibition at 0.001 µM ([1]; Table 3): 20%; IC50 ([2]; Table 3): > 1 µM; IC50 ([3]; Table 3, 72 h): > 1 µM
24 | COCCCNc1ncnc2ncc(-c3cnc(OC)c(NS(=O)(=O)c4ccc(F)cc4F)c3)cc12 [17i, N-(2-methoxy-5-(4-((3-methoxypropyl)amino)pyrido[2,3-d]pyrimidin-6-yl)pyridin-3-yl)-2,4-difluorobenzenesulfonamide] |  | > 1 µM | > 1 µM |  |  |  | 
